Here are results for 34 compounds from ChEMBL document CHEMBL3045288, “Pharmacophore of neonicotinoid insecticides” (J Pestic Sci, 2008).

Series [1] has as its system Periplaneta americana. Nature of the series: Neuroblocking potency in Periplaneta americana (American cockroach) central nerve cord. Format: functional.
Series [2] concerns Aulacophora. The series is described as follows: Insecticidal activity against Aulacophora femoralis (cucurbit leaf beetle) at 20 ppm. Format: functional.
The test system of series [3] is Aulacophora. The series is described as follows: Insecticidal activity against Aulacophora femoralis (cucurbit leaf beetle) at 100 ppm. Format: functional.
For series [4], the system named is Myzus persicae. Nature of the series: Insecticidal activity against Myzus persicae (green peach aphid) at 100 ppm. Format: functional.
The test system of series [5] is Myzus persicae. The series is described as follows: Insecticidal activity against Myzus persicae (green peach aphid) at 20 ppm. Format: functional.
The subject of series [6] is Spodoptera litura. Nature of the series: Insecticidal activity against Spodoptera litura at 500 ppm. Format: functional.
Series [7] deals with Spodoptera litura. Nature of the series: Insecticidal activity against Spodoptera litura at 100 ppm. Format: functional.
The subject of series [8] is Myzus persicae. Nature of the series: Insecticidal activity against Myzus persicae (green peach aphid) at 500 ppm. Format: functional.
Series [9] relates to Aulacophora. The series is described as follows: Insecticidal activity against Aulacophora femoralis (cucurbit leaf beetle) at 500 ppm. Format: functional.
Series [10] in a line: Lipophilicity, log P of the compound. Format: physicochemical. As to conditions: octanol/water.
For series [11], the system named is Periplaneta americana. Nature of the series: Insecticidal activity against Periplaneta americana (American cockroach) central nerve cord. Format: functional.
The test system of series [12] is Spodoptera litura. The series is described as follows: Insecticidal activity against Spodoptera litura at 20 ppm. Format: functional.

As for `O=[N+]([O-])/C=C1\NCCN1Cc1ccc(Cl)nc1`, in series [1], the “log(1/BC)” value was determined as 5.02.

With `O=[N+]([O-])/N=C1\N(CCCF)CCN1Cc1ccc(Cl)nc1`, the Activity in [2] came to 100%; in series [3] it was 100%; in series [4], 100%; in series [5], 100%; in series [6], 0%.

For the compound `O=[N+]([O-])/N=C1\NCCN1CCCCF`, the Activity in [4] was determined as 60%; in series [5], 0%; in series [7] it was 0%; in [6], 20%; in [8], 97%.

As for `O=[N+]([O-])/N=C1\NCCN1CCCF`, the Activity turned out to be 0% in series [2]; 100% in series [3]; 90% in [4]; 60% in series [5]; 20% in series [7]; 100% in series [9]. The Activity in series [6] turned out to be 100%; in series [8], 97%.

On to `O=[N+]([O-])/N=C1\NCCN1CCCCl`, for which the Activity was found to be 50% in [2]; 100% in series [3]; 0% in series [4]; 100% in series [9]; 0% in series [6]; 97% in series [8].

For `O=[N+]([O-])/N=C1\NCCN1CCF`, the values for the Activity in series [9], in series [6] and in series [8] were 0%, 0% and 60%, respectively.

As to `CCCN1CCN/C1=N\[N+](=O)[O-]`, the results for the Activity in series [9], in series [6] and in series [8] were 0%, 0% and 60%, respectively.

Turning to `O=[N+]([O-])/N=C1\NCCCN1Cc1ccc(Cl)nc1`, the “log(1/BC)” value in series [1] is on record as 5.35.

Take `O=[N+]([O-])/C=C1\SCCN1Cc1ccc(Cl)nc1`: the “log(1/BC)” value in series [1] stood at 6.19.

Turning to `CN1CCN(Cc2ccc(Cl)nc2)/C1=N/[N+](=O)[O-]`, the “log(1/BC)” value in series [1] is listed as 3.81.

Consider `O=[N+]([O-])/N=c1\ccccn1Cc1ccc(Cl)nc1`, for which the “log(1/BC)” value in series [1] turned out to be 5.09.

For the compound `O=[N+]([O-])/N=c1\ccccn1Cc1cnc(Cl)s1`, in series [1], the “log(1/BC)” value is recorded as 5.75.

Regarding `O=[N+]([O-])/C=C1\CCCN1Cc1ccc(Cl)nc1`, the “log(1/BC)” value in series [1] worked out at 6.43.

As to `O=[N+]([O-])/C=C1\NCCN1Cc1cnc(Cl)s1`, in [1], the “log(1/BC)” value is on record as 5.73.

For `O=[N+]([O-])/N=C1\SCCN1Cc1cnc(Cl)s1`, the “log(1/BC)” value in series [1] worked out at 6.31.

For the compound `O=[N+]([O-])/C=C1\CCCN1Cc1cnc(Cl)s1`, the logP in [10] came to 0.64. Besides, in [1], the “log(1/BC)” value was determined as 6.

As for `CN1CCN(Cc2ccc(Cl)nc2)/C1=C/[N+](=O)[O-]`, in series [1], the “log(1/BC)” value worked out at 3.84.

`O=[N+]([O-])/N=c1\[nH]ccn1Cc1cnc(Cl)s1`: the “log(1/BC)” value in [1] stood at 4.61.

Regarding `O=[N+]([O-])/N=c1\sccn1Cc1cnc(Cl)s1`, in [1], the “log(1/BC)” value came to 5.79.

In turn, `O=[N+]([O-])/N=C1/N(CCCCN2CCN(Cc3ccc(Cl)nc3)/C2=N/[N+](=O)[O-])CCN1Cc1ccc(Cl)nc1` showed an Activity in series [11] of 11 nmol.

In series [11], `O=[N+]([O-])/N=C1/N(CCCCCCCCCN2CCN(Cc3ccc(Cl)nc3)/C2=N/[N+](=O)[O-])CCN1Cc1ccc(Cl)nc1` gave an Activity of 2.8 nmol.

As for `O=[N+]([O-])/N=C1/N(CCCCCN2CCN(Cc3ccc(Cl)nc3)/C2=N/[N+](=O)[O-])CCN1Cc1ccc(Cl)nc1`, the Activity in series [11] worked out at 3.9 nmol.

In turn, `O=[N+]([O-])/N=C1/N(CCCN2CCN(Cc3ccc(Cl)nc3)/C2=N/[N+](=O)[O-])CCN1Cc1ccc(Cl)nc1` yielded an Activity in [11] of 4.9 nmol.

The compound `O=[N+]([O-])/N=C1/N(CCCCCCCCCCN2CCN(Cc3ccc(Cl)nc3)/C2=N/[N+](=O)[O-])CCN1Cc1ccc(Cl)nc1` registered an Activity in series [11] of 3.7 nmol.

For the compound `O=[N+]([O-])/N=C1\NCCN1CCC(F)(F)F`, the Activity in [3] is listed as 50%; in [9] it was 100%; in series [6] it was 30%; in series [8], 0%.

For `O=[N+]([O-])/N=C1\NCCN1CCC(F)=C(F)F`, the Activity in series [9], in series [6] and in [8] was 0% throughout.

`O=[N+]([O-])/N=C1\N(CCN2CCN(Cc3ccc(Cl)nc3)/C2=N\[N+](=O)[O-])CCN1Cc1ccc(Cl)nc1` had an Activity in series [11] of 8.3 nmol.

The compound `O=[N+]([O-])/N=C1/N(CCCCCCCCN2CCN(Cc3ccc(Cl)nc3)/C2=N/[N+](=O)[O-])CCN1Cc1ccc(Cl)nc1` showed an Activity in [11] of 4.5 nmol.

As for `O=[N+]([O-])/N=c1\sccn1Cc1ccc(Cl)nc1`, the “log(1/BC)” value in series [1] stood at 5.68.

Regarding `O=[N+]([O-])Nc1nccn1Cc1ccc(Cl)nc1` [DEHYDROIMIDACLOPRID], in series [1], the “log(1/BC)” value was 4.31.

Turning to `O=[N+]([O-])/N=C1/N(CCCCCCCN2CCN(Cc3ccc(Cl)nc3)/C2=N/[N+](=O)[O-])CCN1Cc1ccc(Cl)nc1` [Heptamethylene 1,7-bis-imadacloprid], the Activity in [11] was determined as 2.8 nmol.

Consider `O=[N+]([O-])/N=C1/N(CCCCCCN2CCN(Cc3ccc(Cl)nc3)/C2=N/[N+](=O)[O-])CCN1Cc1ccc(Cl)nc1` [Hexamethylene 1,6-bis-imadacloprid], for which, in series [11], the Activity was 2.2 nmol.

With `O=[N+]([O-])/N=C1\NCCN1Cc1ccc(Cl)nc1` [IMIDACLOPRID], the Activity in series [11] worked out at 2.5 nmol; in series [2] it was 100%; in [12], 40%; in series [3], 100%; in series [4], 100%; in [5], 100%. Moreover, the Activity in [7] turned out to be 80%; in [9] it was 100%; in series [6], 100%; in [8] it was 100%. Also, the “log(1/BC)” value in [1] is listed as 5.64.

With `O=[N+]([O-])/N=C1\NCCN1Cc1cnc(Cl)s1` [IMIDACLOTHIZ], the “log(1/BC)” value in series [1] came out at 5.97.

Broadly, the logP is a log measure of how a compound divides between an organic and an aqueous phase. High values mean higher lipophilicity, low ones lower lipophilicity.
